Data: patent publication EP4722219A1 (Gan & Lee Pharmaceuticals Co., Ltd., priority 2023, dated 2024)
Substitutions are numbered along the chain they refer to.

Legend:
Assay type in all cases: cell-based
T-47D cells = test: Inhibition of cell proliferation in T-47D cells (CCK-8); settings: 6 days treatment, CCK-8 cell viability
Method: Test Example 2 Inhibitory effect of PROTAC compounds provided by the present invention on cell proliferation in T-47D cells
The complete culture medium required for T-47D cells is 1640 (ATCC, Product number: A10491-01) basal culture medium containing 10% fetal bovine serum. T-47D cells were seeded in 96-well plates at a density of 3,000 cells/well, and different concentrations of PROTAC compounds 1-55 provided in the examples of the present invention and positive control sample ARV-471 (source: Inokai) were prepared to treat the cells and incubated at 37 °C, 5% CO2 cell culture incubator for 6 days. According to the manufacturer's instructions, cell viability was detected using a CCK-8 kit (Beyotime, Product number: C0040). The IC50 of each compound after treating for 6 days was calculated using GraphPadPrism software based on the inhibition rate. Table 2 Inhibition IC50 value of T-47D cell proliferation by PROTAC compounds provided by the present invention and positive control sample

MCF-7 cells = test: Inhibition of cell proliferation in MCF-7 cells (CCK-8); settings: MCF-7 cell proliferation, 6 days treatment
Method: Test Example 3 Inhibitory effect of PROTAC compounds provided by the present invention on cell proliferation in MCF-7 cells
The complete culture medium required for MCF-7 cells (source ATCC) is DMEM (gibco, Product number: 11995-065) basal culture medium containing 10% fetal bovine serum. MCF-7 cells were seeded in 96-well plates at a density of 800 cells/well, and different concentrations of PROTAC compounds 1-55 provided in the examples of the present invention and positive control sample ARV-471 (source: Inokai) were prepared to treat the cells and incubated at 37 °C, 5% CO2 cell culture incubator for 6 days. According to the manufacturer's instructions, cell viability was detected using a CCK-8 kit (Beyotime, Product number: C0040). The IC50 of each PROTAC compound after treating for 6 days was calculated using GraphPadPrism software based on the inhibition rate. Table 3 Inhibition IC50 value of MCF-7 cell proliferation by PROTAC compounds of the present invention and positive control sample

AR protein [1] = target: T1, AR protein (Homo sapiens, UniProt P10275, T878A); test: AR protein degradation in LNCaP cells (Western blot); settings: 8 hours
T1 construct: host or cells: LNCaP FGC
T1 sequence (P10275 1-920 T878A): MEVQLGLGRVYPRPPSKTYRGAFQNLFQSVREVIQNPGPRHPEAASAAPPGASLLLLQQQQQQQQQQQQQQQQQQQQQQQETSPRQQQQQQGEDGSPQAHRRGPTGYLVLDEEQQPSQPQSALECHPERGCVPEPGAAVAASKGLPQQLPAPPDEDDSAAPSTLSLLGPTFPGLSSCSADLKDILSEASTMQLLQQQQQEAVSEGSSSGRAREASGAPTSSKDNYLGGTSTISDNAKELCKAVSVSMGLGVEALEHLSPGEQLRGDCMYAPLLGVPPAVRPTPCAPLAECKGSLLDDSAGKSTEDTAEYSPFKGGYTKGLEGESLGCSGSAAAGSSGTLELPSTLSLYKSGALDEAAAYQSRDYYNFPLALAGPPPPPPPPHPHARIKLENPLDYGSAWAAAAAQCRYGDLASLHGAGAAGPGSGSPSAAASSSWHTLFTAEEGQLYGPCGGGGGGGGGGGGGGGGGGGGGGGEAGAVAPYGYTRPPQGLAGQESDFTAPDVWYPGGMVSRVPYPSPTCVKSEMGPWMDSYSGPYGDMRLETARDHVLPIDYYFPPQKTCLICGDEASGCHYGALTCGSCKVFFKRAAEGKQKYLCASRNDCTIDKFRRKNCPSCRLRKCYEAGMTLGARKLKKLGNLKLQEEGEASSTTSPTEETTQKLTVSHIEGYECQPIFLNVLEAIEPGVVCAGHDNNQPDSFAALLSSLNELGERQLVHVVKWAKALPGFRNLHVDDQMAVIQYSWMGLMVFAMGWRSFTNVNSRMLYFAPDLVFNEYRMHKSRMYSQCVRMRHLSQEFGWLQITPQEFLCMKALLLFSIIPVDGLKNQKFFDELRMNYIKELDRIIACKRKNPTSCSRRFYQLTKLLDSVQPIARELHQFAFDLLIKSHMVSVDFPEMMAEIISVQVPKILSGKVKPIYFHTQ
Method: At the same time, the corresponding solvent control was set and cultured for 8 hours. After 8 hours of culture, the culture medium was removed, the cells were washed with PBS, and RIPA lysis buffer containing 1% Protease Inhibitor Cocktail was added. After lysis and centrifugation, the total protein extract was obtained, and the protein concentration in the extract was detected by BCA method. Protein electrophoresis was performed using SDS-PAGE, and then the protein was transferred to a PVDF (Millipore Sigma catalog number PSRP010R5) membrane at a constant voltage of 100V for 60 minutes. The PVDF membrane was placed in a 5% milk powder 1 ×TBST solution and blocked at room temperature for 1 hour. […] The primary antibody solution was discarded and the PVDF membrane was washed with 1×TBST for 5 minutes each time, for three times. […] The secondary antibody solution was discarded and the PVDF membrane was washed with 1 ×TBST for 5 minutes each time, for three times. A dual-color infrared laser imaging system (Licor catalog number Odyssey CLX) was used for Western membrane imaging. The Image Studio software was used to analyze the grayscale of the bands. GAPDH protein bands were also detected for each sample as the reference. The AR protein degradation rate of the compound and the positive control sample was calculated based on the grayscale of the protein bands.

AR protein [2] = target: T2, AR protein (Homo sapiens, UniProt P10275); test: AR protein degradation in VCaP cells (Western blot); settings: 8h
T2 construct: host or cells: VCaP
T2 sequence (P10275 1-920): T1 sequence (P10275 1-920 T878A) with A878T
Method: The degradation activity of the compounds disclosed in the present invention on AR protein in VCaP cells (cell source: ATCC)
The AR-positive human prostate cancer cells VCaP cultured in DMEM (GiBco catalog number 11995-065) containing 10% FBS (Hyclone catalog number SH30406.05) was inoculated in a six-well microplate (Thermo catalog number 140675) at a concentration of 3×10^5 cells/ well. After being cultured overnight in a carbon dioxide incubator (ESCO), the prepared compound of the present invention and the positive control sample ARV-766 (Annaiji) solution of different concentrations were added at a volume of 1 µL/well to make the final concentrations of the compound and the positive control sample reach 5nM and 0.5nM, respectively. At the same time, the corresponding solvent control was set and cultured for 8h. After 8h of culture, the culture medium was removed, and the cells were washed with PBS. RIPA lysis buffer containing 1% Protease Inhibitor Cocktail was added. After lysis and centrifugation, a total protein extract was obtained, and the protein concentration in the extract was detected by BCA method. Protein electrophoresis was performed using SDS-PAGE, and then the protein was transferred to a PVDF (Millipore Sigma catalog number PSRP010R5) membrane at a constant voltage of 100V for 60min. The PVDF membrane was placed in a 5% milk powder 1×TBST solution and blocked at room temperature for 1h. The primary antibody solution (Anti-Androgen receptor, Cell Signaling Technology catalog number: 5153S; 1:2000 dilution) was prepared and was incubated at 4°C overnight. The primary antibody solution was discarded and the PVDF membrane was washed with 1×TBST for 5 minutes each time, for three times. The secondary antibody solution (Thermo catalog number SA5-35571; 1:7500 dilution) was prepared and was incubated at room temperature for 1 hour. The secondary antibody solution was discarded and the PVDF membrane was washed with 1×TBST for 5 minutes each time, for three times. A dual-color infrared laser imaging system (Licor catalog number Odyssey CLX) was used for Western membrane imaging. Image Studio software was used to analyze the grayscale of the bands. GAPDH protein bands were also detected for each sample as the reference. The AR protein degradation rate of the compound and the positive control sample was calculated based on the grayscale of the protein bands.
Table 7 Degradation rate of AR protein in VCaP cells by the compounds disclosed in the present invention

## O=C1CC[C@H](NC(=O)c2ccc3c(c2F)OCC32CCN(CC3CCC(OC4CCN(c5ccc([C@@H]6c7ccc(O)cc7CC[C@@H]6c6ccccc6)cc5)CC4)CC3)CC2)C(=O)N1 (stereo partly drawn) [ER-P-82, N-((S)-2,6-dioxopiperidin-3-yl)-7-fluoro-1'-(((1S,4R)-4-((1-(4-((1R,2S)-6-hydroxy-2-phenyl-1,2,3,4-tetrahydronaphthalen-1-yl)phenyl)piperidin-4-yl)oxy)cyclohexyl)methyl)-2H-spiro[benzofuran-3,4'-piperidine]-6-carboxamide]
T-47D cells
  IC50: 28.1 nM
MCF-7 cells
  IC50: 4390 nM

## O=C1CCC(NC(=O)c2cc3c(cc2F)CCC2(CCN(CC4CCC(OC5CCN(c6ccc(C7c8ccc(O)cc8CCC7c7ccccc7)cc6)CC5)CC4)CC2)O3)C(=O)N1 [ER-P-90, N-((S)-2,6-dioxopiperidin-3-yl)-6-fluoro-1'-((((1S,4R)-4-((1-(4-((1R,2S)-6-hydroxy-2-phenyl-1,2,3,4-tetrahydronaphthalen-1-yl)phenyl)piperidin-4-yl)oxy)cyclohexyl)methyl)spiro[chromane-2,4'-piperidine]-7-carboxamide]
T-47D cells; Homo sapiens, T47D, 144 h
  IC50: 171 nM
MCF-7 cells; Homo sapiens, MCF7, 144 h
  IC50: 3650 nM

## COc1cc2c(cc1C(=O)NC1CCC(=O)NC1=O)CCC1(CCN(CC3CCC(OC4CCN(c5ccc(C6c7ccc(O)cc7CCC6c6ccccc6)cc5)CC4)CC3)CC1)O2 (centres unmarked) [ER-P-88]
T-47D cells; Homo sapiens, T47D, 144 h
  IC50: 9.59 nM
MCF-7 cells; Homo sapiens, MCF7, 144 h
  IC50: 1030 nM

## Cn1c(=O)n(C2CCC(=O)NC2=O)c2ccc3c(c21)OCC31CCN(CC2CC(OC3CCN(c4ccc([C@@H]5c6ccc(O)cc6CC[C@@H]5c5ccccc5)cc4)CC3)C2)CC1 (stereo partly drawn) [ER-P-80, 3-(1'-(((1S,3s)-3-((1-(4-((1R,2S)-6-hydroxy-2-phenyl-1,2,3,4-tetrahydronaphthalen-1-yl)phenyl)piperidin-4-yl)oxy)cyclobutyl)methyl)-1-methyl-2-oxo-1,2-dihydro-3H,7H-spiro[benzofuro[6,7-d]imidazole-6,4'-piperidin]-3-yl)piperidine-2,6-dione]
T-47D cells
  IC50: 0.9 nM

## COc1cc(O[C@H]2C(C)(C)[C@H](NC(=O)c3ccc(N4CCC(CN5CCC6(CC5)COc5c6ccc6c5n(C)c(=O)n6C5CCC(=O)NC5=O)CC4)nn3)C2(C)C)ccc1C#N (relative stereo) [A-P-27]
AR protein [1]; 10 nM
  Degradation of AR protein in LNCaP cells, 10 nM (%): 43%
AR protein [1]; 100 nM
  Degradation of AR protein in LNCaP cells, 100 nM (%): 43%
AR protein [2]; 0.5 nM
  Degradation rate of AR protein in VCaP cells: 78%
AR protein [2]; 5 nM
  Degradation rate of AR protein in VCaP cells: 80%

## COc1cc(O[C@H]2CC[C@H](NC(=O)c3ccc(N4CCC5(CC4)CC(N4CCC6(CC4)COc4cc7c(cc46)n(C)c(=O)n7C4CCC(=O)NC4=O)C5)nn3)CC2)ccc1C#N (some centres unmarked) [A-P-11]
AR protein [1]; 10 nM
  percent AR protein degradation at a fixed concentration at 0.01 µM: 76%
AR protein [1]; 100 nM
  percent AR protein degradation at a fixed concentration at 0.1 µM: 32%

## O=C1CCC(Nc2ccc3c(c2)OCC32CCN(CC3CC(OC4CCN(c5ccc([C@@H]6c7ccc(O)cc7CC[C@@H]6c6ccccc6)cc5)CC4)C3)CC2)C(=O)N1 (stereo partly drawn) [ER-P-92, 3-((1'-(((1S,3s)-3-((1-(4-((1R,2S)-6-hydroxy-2-phenyl-1,2,3,4-tetrahydronaphthalen-1-yl)phenyl)piperidin-4-yl)oxy)cyclobutyl)methyl)-2H-spiro[benzofuran-3,4'-piperidin]-6-yl)amino)piperidine-2,6-dione]
T-47D cells
  IC50: 4.56 nM
